{"source": "patent US20250250303A1", "about": "(THE TRUSTEES OF COLUMBIA UNIVERSITY IN THE CITY OF NEW YORK, priority 2022, published 2025)", "key": {"[1]": {"assay": "Chronic treatment by osmotic minipump", "type": "in vivo, mice", "from_the_text": "2-month-old male mice were implanted with osmotic minipump releasing Humulin (0.2 U/day), S597 (0.3 U/day), or S597-S20D (0.3 U/day). […] Hepes, N=7; Humulin, N=8; S597, N=7; S597-S20D, N=4. […] Hepes, N=7; Humulin, N=8; S597, N=9; S597-S20D, N=4. Two-way ANOVA followed by Tukey's multiple comparisons test. […] Mean±SEM. Hepes, N=8; Humulin, N=7; S597, N=9; S597-S20D, N=5. […] Hepes, N=4; Humulin and S597 analogs, N=5. two-tailed Student's t-test. All graphs show Mean±SEM.\nTo examine the long-term effects of S597 in vivo, C57BL/6J WT mice were implanted with osmotic minipumps releasing either HEPES, Humulin, or mimetics. […] Consistent with previous work, chronic treatment of Humulin increased body weight (FIGS. 11E, 11F)."}, "Insulin tolerance test": {"assay": "Insulin tolerance test", "type": "in vivo, mice", "settings": "intraperitoneal; for blood glucose levels in ITT: FIGS. 10A, 8F, 8G; for blood glucose in insulin tolerance assays: FIGS. 12B, 12C", "procedure": "Insulin tolerance tests were performed as described previously with some modification. Briefly, 2-3 months old male mice were fasted for 2 hr. and their blood glucose levels (T=0) were measured with tail bleeding using a glucometer (AlphaTRAK). After then, mice were injected intraperitoneally with Humulin (6 nmol/kg body weight), S597 (9 nmol/kg), S597-S20D (9 nmol/kg), S597-W6A (9 nmol/kg), S597-F27A (9 nmol/kg), or S597-N20 (27 nmol/kg), and their blood glucose levels were measured at the indicated time points after injection."}, "IR wild-type (WT)": {"target": "T1, IR wild-type (WT) (Homo sapiens, UniProt P06213)", "T1 construct": "expressed in transfected cells; host or cells: 293 FT cells", "T1 sequence (P06213 28-1370 isoform P06213-2 limits assumed)": "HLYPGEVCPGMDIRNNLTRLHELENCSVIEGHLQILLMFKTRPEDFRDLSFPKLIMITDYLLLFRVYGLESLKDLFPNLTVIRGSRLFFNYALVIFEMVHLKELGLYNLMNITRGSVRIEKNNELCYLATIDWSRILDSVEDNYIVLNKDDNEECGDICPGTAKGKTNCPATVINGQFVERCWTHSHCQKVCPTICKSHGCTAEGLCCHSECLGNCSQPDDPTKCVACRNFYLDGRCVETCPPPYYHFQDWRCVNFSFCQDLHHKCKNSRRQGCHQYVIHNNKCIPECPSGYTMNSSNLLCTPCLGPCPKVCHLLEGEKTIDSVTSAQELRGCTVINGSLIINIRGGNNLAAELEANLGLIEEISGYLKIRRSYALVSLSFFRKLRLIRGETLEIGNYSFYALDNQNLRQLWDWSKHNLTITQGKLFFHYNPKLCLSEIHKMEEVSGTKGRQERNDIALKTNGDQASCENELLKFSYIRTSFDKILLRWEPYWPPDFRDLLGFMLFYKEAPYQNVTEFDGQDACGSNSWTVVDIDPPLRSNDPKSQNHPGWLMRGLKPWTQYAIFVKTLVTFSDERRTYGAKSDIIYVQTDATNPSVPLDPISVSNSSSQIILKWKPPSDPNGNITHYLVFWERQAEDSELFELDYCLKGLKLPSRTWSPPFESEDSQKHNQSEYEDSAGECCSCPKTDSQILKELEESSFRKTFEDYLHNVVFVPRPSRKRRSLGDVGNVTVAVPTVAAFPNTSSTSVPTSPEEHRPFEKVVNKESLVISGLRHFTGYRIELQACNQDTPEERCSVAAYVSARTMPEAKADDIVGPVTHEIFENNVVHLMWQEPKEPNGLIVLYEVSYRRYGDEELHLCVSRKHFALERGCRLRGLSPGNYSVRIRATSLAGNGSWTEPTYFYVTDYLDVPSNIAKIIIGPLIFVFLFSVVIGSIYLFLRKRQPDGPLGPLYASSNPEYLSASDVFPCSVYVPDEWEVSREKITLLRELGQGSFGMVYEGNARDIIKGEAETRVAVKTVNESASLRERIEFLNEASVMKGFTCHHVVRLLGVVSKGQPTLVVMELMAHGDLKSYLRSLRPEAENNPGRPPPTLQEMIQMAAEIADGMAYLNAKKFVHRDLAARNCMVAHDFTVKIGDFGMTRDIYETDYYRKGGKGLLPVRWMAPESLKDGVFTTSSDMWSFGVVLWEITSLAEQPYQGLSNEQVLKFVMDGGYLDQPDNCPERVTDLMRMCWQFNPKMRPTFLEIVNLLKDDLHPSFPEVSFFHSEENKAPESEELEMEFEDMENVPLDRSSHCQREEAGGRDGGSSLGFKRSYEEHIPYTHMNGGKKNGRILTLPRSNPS", "T1 sequence (P06213 763-1382 partner limits assumed)": "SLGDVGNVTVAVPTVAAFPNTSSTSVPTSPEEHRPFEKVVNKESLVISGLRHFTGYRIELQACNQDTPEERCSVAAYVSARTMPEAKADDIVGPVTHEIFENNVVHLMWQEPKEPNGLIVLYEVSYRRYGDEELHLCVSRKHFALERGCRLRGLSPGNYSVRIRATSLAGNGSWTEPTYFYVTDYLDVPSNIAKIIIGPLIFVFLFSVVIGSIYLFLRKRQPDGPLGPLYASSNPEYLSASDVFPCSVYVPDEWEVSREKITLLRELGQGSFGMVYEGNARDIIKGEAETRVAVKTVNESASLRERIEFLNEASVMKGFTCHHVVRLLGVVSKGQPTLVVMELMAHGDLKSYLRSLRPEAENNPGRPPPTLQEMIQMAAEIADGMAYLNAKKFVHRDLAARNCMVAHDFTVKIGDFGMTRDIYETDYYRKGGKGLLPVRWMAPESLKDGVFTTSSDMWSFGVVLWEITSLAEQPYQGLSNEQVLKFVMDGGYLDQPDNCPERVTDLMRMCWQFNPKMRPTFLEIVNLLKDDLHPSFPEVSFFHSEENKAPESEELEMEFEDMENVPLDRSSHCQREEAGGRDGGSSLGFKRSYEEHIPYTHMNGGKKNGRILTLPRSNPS", "assay": "IR activation (auto-phosphorylation) assay in 293 FT cells expressing IR WT", "type": "cell-based", "settings": "293 FT cells expressing IR WT; 10 nM for 10 min", "procedure": "The insulin receptor signaling assay was performed as described earlier with some modifications. For the activation assay, the short isoform of human IR in pCS2-MYC was used as described previously. Plasmid transfections into 293 FT cells were performed with Lipofectamin™ 2000 (Invitrogen).\n(§1) The cells were incubated with the lysis buffer B [50 mM Hepes pH 7.4, 150 mM NaCl, 10% Glycerol, 1% Triton X-100, 1 mM EDTA, 100 mM sodium fluoride, 2 mM sodium orthovanadate, 20 mM sodium pyrophosphate, 0.5 mM dithiothreitol (DTT), 2 mM phenylmethylsulfonyl fluoride (PMSF)] supplemented with complete Protease Inhibitor Cocktail (Roche), PhosSTOP (Sigma), and 25 U/ml turbo nuclease (Accelagen) on ice for 1 hr. After centrifuge at 20,817 g at 4° C. for 10 min, the concentrations of cell lysate were measured using Micro BCA Protein Assay Kit (Thermo Scientific). About 50-60 μg total proteins were analyzed by SDS-PAGE and quantitative Western blotting. The following antibodies were purchased from commercial sources: Anti-IR-pY1150/1151 (WB, 1:1000; 19H6; labeled as pY IR, Cat. #3024), anti-AKT (WB, 1:1000; 40D4, Cat. #2920), anti-pS473 AKT (WB, 1:1000; D9E, Cat. #4060), anti-ERK1/2 (WB, 1:1000; L34F12, Cat. #4696), anti-pERK1/2 (WB, […]; 197G2, Cat. #4377), anti-IRS1-pS616 (WB, 1:1000; C15H5, Cell Signaling, Cat. #3203); anti-IRS1 (WB, 1:1000; A301-158A, Bethyl Laboratory); anti-IR (WB, 1:500, CT-3, Santa Cruz; labeled as IR for primary hepatocytes and MEFs, Cat. #sc-57342); anti-IR (WB, 1:1000; EPR23566-103; labeled as IR for FIG. 31, ab278100, Abcam); anti-Myc (WB, 1:2000; 9E10, Cat. #11667149001, Roche; labeled as IR for 293 FT cells). For quantitative western blots, anti-rabbit immunoglobulin G (IgG) (H+L) (WB, 1:5000; Dylight 800 conjugates, Cat. #5151) and anti-mouse IgG (H+L) (WB, 1:5000; Dylight 680 conjugates, Cat. #5470) (Cell Signaling) were used as secondary antibodies. The membranes were scanned with the Odyssey Infrared Imaging System (Li—COR, Lincoln, NE)."}, "IR signaling [2]": {"test_system": "IR signaling", "assay": "IR signaling in primary mouse hepatocytes", "type": "cell-based", "procedure": "Primary hepatocytes were isolated from 2-month-old male mice with a standard two-step collagenase perfusion procedure as described earlier with some modifications. […] After 1-2 sec upon appearance of white spots in the liver, the portal vein was cut with scissors to wash out blood, and then the liver was perfused with 30 ml of Liver Digest Medium (Thermo Scientific, Cat. #17703034). Dissected liver was gently washed with low glucose DMEM and transferred to sterile culture dish containing 15 ml Liver Digest Medium. The isolated liver cells were filtered through the 70 μm cell strainer into a 50 ml tube. After centrifuge at 50 g for 5 min at 4° C., cells were washed with cold low glucose DMEM three times. […] After 2 hr., the medium was changed to serum free low-glucose DMEM.\nas §1"}, "SREBP1": {"test_system": "SREBP1", "assay": "Immunofluorescence assay for SREBP1 translocation in primary hepatocytes", "type": "cell-based, mouse", "settings": "100 nM for 30 min", "procedure": "Primary hepatocytes were as described in the primary hepatocyte isolation section. […] Cells were fixed with 4% paraformaldehyde for 10 min. The fixed cells were incubated with PBS for 30 min and 3% BSA in PBS with 0.1% Triton X-100 (0.1% PBST) for 1 hr., and then treated with anti-SREBP1 antibodies (20B12, Millipore, Cat. #MABS1987, 1:200) in 3% BSA in 0.1% PBST at 4° C. overnight. After being washed, cells were incubated with secondary antibodies (Alexa Fluor 488 goat anti-rabbit, Invitrogen, Cat. #A11008, 1:200) for 1 hr. Cells were washed and mounted on microscope slides in ProLong Gold Antifade reagent with DAPI (Invitrogen). Images were acquired as a series of 0.2 μm stacks with a Leica Thunder Imager (Leica Microsystems Inc.). Raw images were deconvolved using LAS X Software (Leica Microsystems Inc.). The nuclear edges and the nuclear SREBP1 signal were defined with Image J. Identical exposure times and magnifications were used for all comparative analyses."}, "IR signaling [3]": {"test_system": "IR signaling", "assay": "Insulin signaling in vivo (liver, skeletal muscle, WAT lysates, western blot)", "design": "species or system mice", "settings": "WAT; compared to vehicle treated conditions", "procedure": "2-3 months old male mice were fasted overnight. […] Livers were removed at 3 min after injection. White adipose tissue and skeletal muscles were removed at 5 min and 7 min after injection, respectively. Tissues were mixed with the lysis buffer B supplemented with complete Protease Inhibitor Cocktail (Roche), PhosSTOP (Sigma), and 25 U/ml turbo nuclease (Accelagen), homogenized with FisherbrandTM Bead Mill homogenizer, and then incubated on ice for 1 hr. After centrifuge at 20,817 g at 4° C. for 30 min, the concentrations of cell lysate were measured using Micro BCA Protein Assay Kit (Thermo Scientific). The lysates were then analyzed by quantitative western blotting."}, "C2C12 cells": {"test_system": "C2C12 cells", "assay": "MTT assay in C2C12 cells", "type": "cell-based", "procedure": "To examine the function of […] on cell viability and growth, an MTT assay was performed in C2C12 cells."}, "[4]": {"target": "T2, full-length mouse insulin receptor, short isoform, D1122N Y962F (mouse, UniProt P15208 28-1372)", "T2 construct": "mature; Residue numbers are as printed; also called MmIR; IR", "T2 sequence (P15208 28-1372 Y989F/D1149N limits assumed)": "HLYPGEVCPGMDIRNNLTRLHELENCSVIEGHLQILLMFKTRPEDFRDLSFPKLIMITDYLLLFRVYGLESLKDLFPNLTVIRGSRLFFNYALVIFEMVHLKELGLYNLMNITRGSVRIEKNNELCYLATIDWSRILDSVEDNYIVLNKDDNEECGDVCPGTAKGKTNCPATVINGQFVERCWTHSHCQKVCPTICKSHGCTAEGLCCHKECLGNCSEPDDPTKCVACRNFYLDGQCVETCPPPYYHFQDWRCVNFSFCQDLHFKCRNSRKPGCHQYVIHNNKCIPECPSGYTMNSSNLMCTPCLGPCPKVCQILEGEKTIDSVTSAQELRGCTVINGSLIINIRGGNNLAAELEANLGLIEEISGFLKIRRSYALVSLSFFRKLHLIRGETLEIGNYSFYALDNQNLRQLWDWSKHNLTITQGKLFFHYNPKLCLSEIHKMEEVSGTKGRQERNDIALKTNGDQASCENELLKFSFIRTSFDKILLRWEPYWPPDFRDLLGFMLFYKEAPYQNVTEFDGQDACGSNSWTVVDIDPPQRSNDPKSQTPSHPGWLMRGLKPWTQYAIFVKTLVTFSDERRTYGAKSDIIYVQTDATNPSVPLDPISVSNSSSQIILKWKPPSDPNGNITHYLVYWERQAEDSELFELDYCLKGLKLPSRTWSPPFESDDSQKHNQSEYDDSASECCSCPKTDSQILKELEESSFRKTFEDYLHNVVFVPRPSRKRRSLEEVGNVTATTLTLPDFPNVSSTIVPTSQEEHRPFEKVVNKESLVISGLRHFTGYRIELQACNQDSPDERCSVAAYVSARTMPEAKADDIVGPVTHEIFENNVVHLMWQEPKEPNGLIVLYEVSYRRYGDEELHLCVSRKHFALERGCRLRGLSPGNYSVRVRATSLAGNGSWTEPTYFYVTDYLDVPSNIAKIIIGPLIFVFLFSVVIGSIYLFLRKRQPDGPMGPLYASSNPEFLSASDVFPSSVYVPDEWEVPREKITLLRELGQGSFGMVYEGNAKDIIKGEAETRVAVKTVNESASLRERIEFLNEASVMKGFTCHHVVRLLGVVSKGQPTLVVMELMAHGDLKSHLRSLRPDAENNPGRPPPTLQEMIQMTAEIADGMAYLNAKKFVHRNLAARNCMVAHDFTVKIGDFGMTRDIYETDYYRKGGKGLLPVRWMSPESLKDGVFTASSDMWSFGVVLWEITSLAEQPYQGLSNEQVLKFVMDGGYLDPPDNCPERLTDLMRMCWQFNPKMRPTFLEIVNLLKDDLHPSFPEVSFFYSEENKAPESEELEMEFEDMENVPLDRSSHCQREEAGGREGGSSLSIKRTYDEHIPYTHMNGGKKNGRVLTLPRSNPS", "assay": "cryo-EM of full-length IR with S597-N20", "procedure": "(§2) The cryo-EM grid was prepared by applying 3 μl of the protein samples (6 mg/ml) to glow-discharged Quantifoil R1.2/1.3 300-mesh gold holey carbon grids (Quantifoil, Micro Tools GmbH, Germany). Grids were blotted for 4.0 seconds under 100% humidity at 4° C. before being plunged into the liquid ethane using a Mark IV Vitrobot (FEI). Micrographs were acquired on a Titan Krios microscope (FEI) operated at 300 kV with a K3 direct electron detector (Gatan), using a slit width of 20 eV on a GIF-Quantum energy filter. SerialEM 3.8 was used for the data collection. […] The defocus range was set from 1.6 μm to 2.6 μm. Each micrograph was dose-fractionated to 30 frames with a total dose of about 60 e⁻/Å²."}, "[5]": {"target": "T2, full-length mouse insulin receptor, …", "assay": "cryo-EM of full-length IR with S597, 5.4 Å", "procedure": "as §2"}}, "note": "Bridge positions count the residues as written; N and C are the ends. Ends that are not written are not given here."}
{"molecule": "Humulin: Humulin (human insulin), Eli Lilly", "values": [{"measurement": "body weight gain", "setting": "[1]", "value": "increased"}, {"measurement": "C-peptide (insulin secretion)", "setting": "[1]; serum, 4 h fasted mice", "value": "decreased"}, {"measurement": "blood glucose levels in ITT", "setting": "Insulin tolerance test", "value": "lowered"}]}
{"molecule": "S597-F27A: S597-component-1 mutant, interrupts the IR L1/S597-component-1 interaction (Ac-SLEEEWAQIECEVYGRGCPSESFYDWAERQL; disulfide 11-18 (inferred))", "values": [{"measurement": "IR activation (auto-phosphorylation of IR, pY IR)", "setting": "IR wild-type (WT)", "value": "greatly reduced potency"}, {"measurement": "blood glucose levels in ITT", "setting": "Insulin tolerance test", "value": "did not reduce"}, {"measurement": "blood glucose in insulin tolerance assays", "setting": "Insulin tolerance test", "value": "did not reduce glucose levels, but rather elevated them"}]}
{"molecule": "S597-N20: N-terminal 20 residues of S597 comprising only component-2 and the linker (Ac-SLEEEWAQIECEVYGRGCPS; disulfide 11-18 (inferred))", "values": [{"measurement": "IR activation (auto-phosphorylation of IR, pY IR)", "setting": "IR wild-type (WT)", "value": "greatly reduced potency"}, {"measurement": "pAKT", "setting": "IR signaling [2]", "value": "did not induce phosphorylation"}, {"measurement": "pERK", "setting": "IR signaling [2]", "value": "did not induce phosphorylation"}, {"measurement": "pY IR", "setting": "IR signaling [2]", "value": "did not induce phosphorylation"}, {"measurement": "blood glucose levels in ITT", "setting": "Insulin tolerance test", "value": "did not reduce"}, {"measurement": "blood glucose in insulin tolerance assays", "setting": "Insulin tolerance test", "value": "did not reduce glucose levels, but rather elevated them"}]}
{"molecule": "S597-W6A: S597-component-2 mutant, disrupts the IR FnIII-1/S597-component-2 interaction (Ac-SLEEEAAQIECEVYGRGCPSESFYDWFERQL; disulfide 11-18 (inferred))", "values": [{"measurement": "IR activation (auto-phosphorylation of IR, pY IR)", "setting": "IR wild-type (WT)", "value": "greatly reduced potency"}, {"measurement": "blood glucose levels in ITT", "setting": "Insulin tolerance test", "value": "did not reduce"}, {"measurement": "blood glucose in insulin tolerance assays", "setting": "Insulin tolerance test", "value": "did not reduce glucose levels, but rather elevated them"}]}
{"molecule": "insulin", "values": [{"measurement": "nuclear translocation of SREBP1", "setting": "SREBP1", "value": "stimulated to the same level"}, {"measurement": "pAKT level", "setting": "IR signaling [3]", "value": "significantly increased"}, {"measurement": "pERK level", "setting": "IR signaling [3]", "value": "neither insulin nor S597 had a statistically significant effect"}, {"measurement": "cell viability and growth", "setting": "C2C12 cells", "value": "significantly increased"}, {"measurement": "pAKT", "setting": "IR signaling [2]", "value": "increased"}, {"measurement": "pERK", "setting": "IR signaling [2]", "value": "increased"}, {"measurement": "pY IR", "setting": "IR signaling [2]", "value": "increased"}]}
{"molecule": "insulin-like growth factor 1 [IGF1]", "values": [{"measurement": "cell viability and growth", "setting": "C2C12 cells", "value": "significantly increased"}]}
{"molecule": "Ac-SLEEEWAQIECEVYGRGCPS (disulfide 11-18 (inferred), also called S597-component-2; S597-component-2 alone)", "note": "[S597-N20]", "values": [{"measurement": "binding result", "setting": "[4]", "value": "binds"}]}
{"molecule": "Ac-SLEEEWAQIECEVYGRGCPSESFYDWFERQL (disulfide 11-18 (inferred), Component-2 (N-terminal helix), linker, component-1 (C-terminal helix); also called full-length S597)", "note": "[S597]", "values": [{"measurement": "stoichiometry (S597: IR dimer)", "setting": "[5]", "value": 2, "unit": "S597 per IR dimer"}]}
